From PubChem BioAssay (NCI)
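Growth conditions: 96-well plates. Treatment: test compound, 48 hours, 5 concentrations. Analysis: linear interpolation between bracketing concentrations; unreached endpoints set to highest concentration. Definition used: TGI = concentration required for complete inhibition of growth.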

Tests used:
Test in all cases: DTP human tumour cell line panel, 48 h
OVCAR-3 ovarian = test system: OVCAR-3 ovarian
SF-268 CNS = test system: SF-268 CNS
NCI-H226 lung = test system: NCI-H226 lung
DLD-1 colon = test system: DLD-1 colon
SN12C renal = test system: SN12C renal
CCRF-CEM leukemia = test system: CCRF-CEM leukemia
SK-MEL-5 melanoma = test system: SK-MEL-5 melanoma
OVCAR-8 ovarian = test system: OVCAR-8 ovarian
A549 NSCLC = test system: A549 NSCLC
NCI-H522 lung = test system: NCI-H522 lung
HCT-15 colon = test system: HCT-15 colon
HOP-92 NSCLC = test system: HOP-92 NSCLC
NCI-H23 lung = test system: NCI-H23 lung
COLO 205 colon = test system: COLO 205 colon
KM20L2 colon = test system: KM20L2 colon
NCI-H460 lung = test system: NCI-H460 lung
MOLT-4 leukemia = test system: MOLT-4 leukemia
TK-10 renal = test system: TK-10 renal
U251 CNS = test system: U251 CNS
SK-OV-3 ovarian = test system: SK-OV-3 ovarian
MALME-3M melanoma = test system: MALME-3M melanoma
HCT-116 colon = test system: HCT-116 colon
M19-MEL melanoma = test system: M19-MEL melanoma
SK-MEL-2 melanoma = test system: SK-MEL-2 melanoma
HOP-62 NSCLC = test system: HOP-62 NSCLC
DMS 273 small cell lung = test system: DMS 273 small cell lung
SK-MEL-28 melanoma = test system: SK-MEL-28 melanoma
IGROV1 ovarian = test system: IGROV1 ovarian
SNB-19 CNS = test system: SNB-19 CNS
SW-620 colon = test system: SW-620 colon
RXF-631 renal = test system: RXF-631 renal
UO-31 renal = test system: UO-31 renal
SF-539 CNS = test system: SF-539 CNS
K-562 leukemia = test system: K-562 leukemia
EKVX NSCLC = test system: EKVX NSCLC
SNB-75 CNS = test system: SNB-75 CNS
OVCAR-5 ovarian = test system: OVCAR-5 ovarian
UACC-62 melanoma = test system: UACC-62 melanoma
DMS 114 small cell lung = test system: DMS 114 small cell lung
M14 melanoma = test system: M14 melanoma
ACHN renal = test system: ACHN renal
786-0 renal = test system: 786-0 renal
HT29 colon = test system: HT29 colon
SF-295 CNS = test system: SF-295 CNS
KM12 colon = test system: KM12 colon
CAKI-1 renal = test system: CAKI-1 renal
OVCAR-4 ovarian = test system: OVCAR-4 ovarian
HCC-2998 colon = test system: HCC-2998 colon
SNB-78 CNS = test system: SNB-78 CNS
SR leukemia = test system: SR leukemia
HL-60(TB) leukemia = test system: HL-60(TB) leukemia
UACC-257 melanoma = test system: UACC-257 melanoma
HOP-18 NSCLC = test system: HOP-18 NSCLC
LXFL 529 NSCLC = test system: LXFL 529 NSCLC
RXF 393 renal = test system: RXF 393 renal
XF 498 CNS = test system: XF 498 CNS
A498 renal = test system: A498 renal
RPMI-8226 leukemia = test system: RPMI-8226 leukemia
LOX IMVI melanoma = test system: LOX IMVI melanoma

C=CCc1cc(OC)c2c(c1)C(O)CC(c1ccccc1)O2 (configuration not stated)
TGI (OVCAR-3 ovarian): > 100 µM
TGI (SF-268 CNS): > 100 µM
TGI (NCI-H226 lung): > 100 µM
TGI (DLD-1 colon): > 100 µM
TGI (SN12C renal): > 100 µM
TGI (CCRF-CEM leukemia): > 100 µM
TGI (SK-MEL-5 melanoma): > 100 µM
TGI (OVCAR-8 ovarian): > 100 µM
TGI (A549 NSCLC): > 100 µM
TGI (NCI-H522 lung): > 100 µM
TGI (HCT-15 colon): > 100 µM
TGI (HOP-92 NSCLC): > 100 µM
TGI (NCI-H23 lung): > 100 µM
TGI (COLO 205 colon): > 100 µM
TGI (KM20L2 colon): > 100 µM
TGI (NCI-H460 lung): > 100 µM
TGI (MOLT-4 leukemia): > 100 µM
TGI (TK-10 renal): > 100 µM
TGI (U251 CNS): > 100 µM
TGI (SK-OV-3 ovarian): > 100 µM
TGI (MALME-3M melanoma): > 100 µM
TGI (HCT-116 colon): > 100 µM
TGI (M19-MEL melanoma): > 100 µM
TGI (SK-MEL-2 melanoma): > 100 µM
TGI (HOP-62 NSCLC): > 100 µM
TGI (DMS 273 small cell lung): > 100 µM
TGI (SK-MEL-28 melanoma): > 100 µM
TGI (IGROV1 ovarian): > 100 µM
TGI (SNB-19 CNS): > 100 µM
TGI (SW-620 colon): > 100 µM
TGI (RXF-631 renal): > 100 µM
TGI (UO-31 renal): > 100 µM
TGI (SF-539 CNS): > 100 µM
TGI (K-562 leukemia): > 100 µM
TGI (EKVX NSCLC): > 100 µM
TGI (SNB-75 CNS): > 100 µM
TGI (OVCAR-5 ovarian): > 100 µM
TGI (UACC-62 melanoma): > 100 µM
TGI (DMS 114 small cell lung): > 100 µM
TGI (M14 melanoma): > 100 µM
TGI (ACHN renal): > 100 µM
TGI (786-0 renal): > 100 µM
TGI (HT29 colon): > 100 µM
TGI (SF-295 CNS): > 100 µM
TGI (KM12 colon): > 100 µM
TGI (CAKI-1 renal): > 100 µM
TGI (OVCAR-4 ovarian): > 100 µM
TGI (HCC-2998 colon): > 100 µM
TGI (SNB-78 CNS): > 100 µM
TGI (SR leukemia): > 100 µM
TGI (HL-60(TB) leukemia): > 100 µM
TGI (UACC-257 melanoma): > 100 µM
TGI (HOP-18 NSCLC): > 100 µM
TGI (LXFL 529 NSCLC): > 100 µM

CCC1CN2CCc3cc(OC)c(OC)cc3C2CC1CC1c2cc(OC)c(OC)cc2CCN1C(=O)C1CCCN1C(=O)OCc1ccccc1 (configuration not stated)
TGI (OVCAR-3 ovarian): 30.7 µM
TGI (SF-268 CNS): 31.9 µM
TGI (NCI-H226 lung): 30.9 µM
TGI (DLD-1 colon): 31 µM
TGI (SN12C renal): 30.6 µM
TGI (SK-MEL-5 melanoma): 28.8 µM
TGI (OVCAR-8 ovarian): 31.7 µM
TGI (A549 NSCLC): 39.2 µM
TGI (RXF 393 renal): 22.4 µM
TGI (HCT-15 colon): 29.9 µM
TGI (HOP-92 NSCLC): 22 µM
TGI (NCI-H23 lung): 32.7 µM
TGI (XF 498 CNS): 30.4 µM
TGI (A498 renal): 29.9 µM
TGI (KM20L2 colon): 31.4 µM
TGI (NCI-H460 lung): 30.2 µM
TGI (TK-10 renal): 38.6 µM
TGI (U251 CNS): 28.3 µM
TGI (MALME-3M melanoma): 32.4 µM
TGI (HCT-116 colon): 25.8 µM
TGI (M19-MEL melanoma): 28.8 µM
TGI (SK-MEL-2 melanoma): 33.6 µM
TGI (HOP-62 NSCLC): 31.8 µM
TGI (DMS 273 small cell lung): 30.3 µM
TGI (SK-MEL-28 melanoma): 30.7 µM
TGI (IGROV1 ovarian): 33.4 µM
TGI (RPMI-8226 leukemia): 36.5 µM
TGI (SNB-19 CNS): 73.5 µM
TGI (SW-620 colon): 28 µM
TGI (RXF-631 renal): 33.9 µM
TGI (UO-31 renal): 26 µM
TGI (SF-539 CNS): 33 µM
TGI (K-562 leukemia): 36 µM
TGI (EKVX NSCLC): 43.3 µM
TGI (SNB-75 CNS): 28.3 µM
TGI (OVCAR-5 ovarian): 34.2 µM
TGI (UACC-62 melanoma): 29.7 µM
TGI (DMS 114 small cell lung): 26.9 µM
TGI (M14 melanoma): 30.9 µM
TGI (ACHN renal): 32.1 µM
TGI (786-0 renal): 40.8 µM
TGI (HT29 colon): 27.4 µM
TGI (SF-295 CNS): 30.4 µM
TGI (KM12 colon): 30.1 µM
TGI (CAKI-1 renal): 47.3 µM
TGI (OVCAR-4 ovarian): 27.4 µM
TGI (HCC-2998 colon): 30 µM
TGI (SNB-78 CNS): 31.2 µM
TGI (LOX IMVI melanoma): 29.1 µM
TGI (HL-60(TB) leukemia): 28.9 µM
TGI (UACC-257 melanoma): 30.8 µM
TGI (HOP-18 NSCLC): 53.7 µM
TGI (LXFL 529 NSCLC): 29.9 µM
